In the OligoGym collection:
After the bases stand the sugars from the 5' end (letter, count) and the backbone: PS all phosphorothioate, else s phosphorothioate and o phosphodiester by linkage. Methylation of C is not given here. l = locked nucleic acid (LNA); d = 2'-deoxy (DNA)

Molecular target: SNHG14
Conditions: ASO
[1] = Mouse Primary Neuronal Cell, 0.005 µM

Sequence | target mRNA inhibition (Human Neuronal Cell, 7.5 µM) [%] | target mRNA inhibition (Human Neuronal Cell, 0.2 µM) [%] | target mRNA inhibition (Human Neuronal Cell, 1 µM) [%] | further results
CCATTTATTTCCATTTATTT (sugars ldlddlddddddddlddlll, PS) | 59 |  |  | 
CCCACCAAAGGATATATT (sugars l3 d12 l3, PS) |  | -28 | 33 | target mRNA inhibition (Human Neuronal Cell, 5 µM): 16%
CCTAAAGATCCCATCAC (sugars l2 d12 l3, PS) |  | 34 | 51 | 
CCTACATCTCATACTT (sugars l2 d10 l4, PS) |  |  |  | target mRNA inhibition [1]: 96.5%
CCTACATCTCATACTTGC (sugars l2 d12 l4, PS) |  |  |  | target mRNA inhibition [1]: 97.3%
CCTCAACTTCACCAAT (sugars l2 d10 l4, PS) |  | 37 | 49 | 
CTAAATAGATTCCACT (sugars l2 d10 l4, PS) |  | 26 | 52 | 
CTAAGCTCCATATTTA (sugars l4 d10 l2, PS) |  | 21 | 42 | 
CTACACATCTTGTATAC (sugars l3 d11 l3, PS) |  | 40 | 52 | 
CTATTCCAGTTTAAAT (sugars l4 d10 l2, PS) |  | 33 | 44 | 
CTCAGACATCTCAATA (sugars l4 d10 l2, PS) |  | 45 | 43 | 
CTGTATACACCATCCCA (sugars l1 d2 l2 d10 l2, PS) | 61 |  |  | 
CTGTATACACCATCCCA (sugars l1 d12 l1 d1 l2, PS) | 58 |  |  | 
CTGTATACACCATCCCA (sugars l1 d14 l2, PS) | 49 |  |  | 
CTGTATACACCATCCCA (sugars l2 d2 l1 d10 l2, PS) | 60 |  |  | 
CTGTATACACCATCCCA (sugars lddddddddddldldll, PS) | 49 |  |  | 
CTGTATACACCATCCCA (sugars ldddlddddddldddll, PS) | 29 |  |  | 
CTGTATACACCATCCCA (sugars lddldddddddddldll, PS) | 49 |  |  | 
CTGTATACACCATCCCA (sugars lddldddddddldddll, PS) | 55 |  |  | 
CTGTATACACCATCCCA (sugars ldlddddddddldddll, PS) | 52 |  |  | 
CTGTTTATACCCTTTCCA (sugars l1 d15 l2, PS) | 47 |  |  | 
CTGTTTATACCCTTTCCA (sugars ldlddddddddddlddll, PS) | 55 |  |  | 
CTGTTTATACCCTTTCCA (sugars ldldldddddddddddll, PS) | 56 |  |  | 

Sequence | target mRNA inhibition (Human Neuronal Cell, 7.5 µM) [%] | target mRNA inhibition (Human Neuronal Cell, 0.2 µM) [%] | target mRNA inhibition (Human Neuronal Cell, 1 µM) [%] | further results
CTTACCAATAGTTACCT (sugars l3 d11 l3, PS) |  | 49 | 54 | 
CTTCCCTTTGATAACA (sugars l4 d10 l2, PS) |  | 12 | 32 | 
CTTCTTGTTTATCCCAA (sugars l2 d11 l4, PS) |  | 57 | 68 | 
CTTGCATTTCTAATTAC (sugars l3 d11 l3, PS) |  | 38 | 35 | 
CTTGTCAAATCATTTCT (sugars l4 d11 l2, PS) |  | 47 | 41 | 
CTTTCCAATGAATCTA (sugars l2 d10 l4, PS) |  | 39 | 55 | 
CTTTGACATTCCATCTC (sugars l2 d11 l4, PS) |  | 52 | 59 | 
CTTTTAACCAGAGTGGC (sugars l4 d11 l2, PS) | 62 |  |  | 
CTTTTAACCAGAGTGGCA (sugars l1 d14 l3, PS) | 61 |  |  | 
CTTTTAACCAGAGTGGCATC (sugars l2 d16 l2, PS) | 57 |  |  | 
GAAAATCTCAACTACCATT (sugars l5 d12 l2, PS) | 60 |  |  | 
GACTACATTCTCAATA (sugars l3 d10 l3, PS) |  | 30 | 50 | 
GATCATTCTCAACAATT (sugars l5 d6 l1 d1 l4, PS) | 0 |  |  | 
GATCATTCTCAACAATTAA (sugars lldllddddddddlldlll, PS) | 28 |  |  | 
GCAACATTATTAACCACCT (sugars ldddddddddddlldldll, PS) | 39 |  |  | 
GCAACATTATTAACCACCT (sugars ldlddlddddddlldddll, PS) | 44 |  |  | 
GCACATTCTTTCTATAC (sugars l1 d1 l3 d8 l4, PS) | 59 |  |  | 
GCACATTCTTTCTATAC (sugars l3 d12 l2, PS) | 52 |  |  | 
GCACATTCTTTCTATAC (sugars ldldlddddddlddlll, PS) | 49 |  |  | 
GCACATTCTTTCTATACC (sugars l1 d1 l2 d11 l3, PS) | 64 |  |  | 
GCACATTCTTTCTATACC (sugars l1 d3 l1 d11 l2, PS) | 54 |  |  | 
GCATTCAACCCTAATCA (sugars l3 d12 l2, PS) |  | 39 | 50 | 
GCTAATTTAAATTTCC (sugars l4 d10 l2, PS) |  | 49 | 67 | 

Sequence | target mRNA inhibition (Human Neuronal Cell, 7.5 µM) [%] | target mRNA inhibition (Human Neuronal Cell, 0.2 µM) [%] | target mRNA inhibition (Human Neuronal Cell, 1 µM) [%] | further results
GCTCCATATTTAAATC (sugars l4 d10 l2, PS) |  | 7 | 20 | 
GCTTCATATTTCTCCA (sugars l2 d11 l3, PS) |  |  | 63 | 
GCTTTTAACCAGAGT (sugars l3 d9 l3, PS) | 73 |  |  | 
GCTTTTAACCAGAGTGGCA (sugars l1 d16 l2, PS) | 46 |  |  | 
GCTTTTAACCAGAGTGGCAT (sugars l1 d16 l3, PS) | 53 |  |  | 
GTTAACCTATATTTCA (sugars l4 d10 l2, PS) |  | 15 | 6 | 
GTTACATATTCTTTCAC (sugars l3 d11 l3, PS) |  | 53 | 67 | 
GTTACCTACATCTCATA (sugars l2 d13 l2, PS) |  | -14 | 11 | target mRNA inhibition (Human Neuronal Cell, 5 µM): 13%; target mRNA inhibition [1]: 81%
GTTCTACTATACTTTCCT (sugars l1 d14 l3, PS) | 46 |  |  | 
GTTCTCTTTATTTCTTCT (sugars l2 d12 l4, PS) |  | 31 | 42 | 
GTTTATACCCTTTCCAAT (sugars l1 d1 l1 d13 l2, PS) | 56 |  |  | 
GTTTATACCCTTTCCAAT (sugars ldldldddddddllddll, PS) | 39 |  |  | 
GTTTCCATCTACTATTAA (sugars ldddldddddddldllll, PS) | 62 |  |  | 
GTTTCCATCTACTATTAA (sugars ldldllddddddddddll, PS) | 58 |  |  | 
GTTTCCATCTACTATTAA (sugars ldlllddddddddlddll, PS) | 49 |  |  | 
GTTTCCATCTACTATTAA (sugars llddldddddddldldll, PS) | 31 |  |  | 
GTTTCCATCTACTATTAAT (sugars ldldddddddddddldlll, PS) | 44 |  |  | 
GTTTCCATCTACTATTAAT (sugars llldlddddddddldddll, PS) | 50 |  |  | 
TAAAATTATTTATACACCA (sugars ldddllddddddllddlll, PS) | 55 |  |  | 
TAAAATTATTTATACACCA (sugars llldllddddddlllldll, PS) | 7 |  |  | 
TAAAATTATTTATACACCAT (sugars l7 d6 l1 d3 l3, PS) | 51 |  |  | 
TAAAATTATTTATACACCAT (sugars ldldllddddddddldllll, PS) | 45 |  |  | 
TAAAATTATTTATACACCAT (sugars lldlllldddddddllldll, PS) | 26 |  |  | 

Sequence | target mRNA inhibition (Human Neuronal Cell, 7.5 µM) [%] | target mRNA inhibition (Human Neuronal Cell, 0.2 µM) [%] | target mRNA inhibition (Human Neuronal Cell, 1 µM) [%] | further results
TAAAGATCCCATCACT (sugars l4 d10 l2, PS) |  | 31 | 50 | 
TACACATCTTGTATAC (sugars l3 d10 l3, PS) |  | 14 | 36 | 
TACACTTAATTATACTTCCA (sugars l1 d2 l1 d13 l3, PS) | 54 |  |  | 
TACACTTAATTATACTTCCA (sugars lddldldddddddlldddll, PS) | 55 |  |  | 
TACACTTAATTATACTTCCA (sugars ldldddlddddddddlddll, PS) | 58 |  |  | 
TACATCTCATACTTGC (sugars l2 d12 l2, PS) |  | 0 | -10 | target mRNA inhibition (Human Neuronal Cell, 5 µM): 8%; target mRNA inhibition [1]: 80.8%
TACATCTCATACTTGCT (sugars l4 d11 l2, PS) |  |  |  | target mRNA inhibition [1]: 95.3%
TACATTATTATTTAACC (sugars l4 d11 l2, PS) |  | 11 | 6 | 
TACCTACATCTCATACT (sugars l4 d11 l2, PS) |  | -53 | -18 | target mRNA inhibition (Human Neuronal Cell, 5 µM): 11%; target mRNA inhibition [1]: 94.4%
TACTATCTTTGACATT (sugars l4 d10 l2, PS) |  | 49 | 58 | 
TACTCTGCAATACACCA (sugars ldddlddddddddldll, PS) | 68 |  |  | 
TAGACTAATCCTCTTA (sugars l4 d10 l2, PS) |  | 48 | 56 | 
TAGCCTACTTTAATAT (sugars l4 d10 l2, PS) |  | 25 | 11 | 
TATAAGCTTACCTCAT (sugars l3 d10 l3, PS) |  | 50 | 66 | 
TATACCTTTCTTTAACCCT (sugars l2 d15 l2, PS) |  | 13 | 37 | 
TATACCTTTCTTTAACCCTT (sugars l2 d3 l1 d12 l2, PS) | 43 |  |  | 
TATACCTTTCTTTAACCCTT (sugars lddddlddddddddddldll, PS) | 61 |  |  | 
TATACCTTTCTTTAACCCTT (sugars lddddldddddddddlddll, PS) | 61 |  |  | 
TATACCTTTCTTTAACCCTT (sugars ldddlddddddddddlddll, PS) | 54 |  |  | 
TATCAATATCTTCTCA (sugars l2 d10 l4, PS) |  | 46 | 61 | 
